One series addresses T1, bovine trypsin (Bos taurus, UniProt P00760).
T1 sequence (P00760 24-246): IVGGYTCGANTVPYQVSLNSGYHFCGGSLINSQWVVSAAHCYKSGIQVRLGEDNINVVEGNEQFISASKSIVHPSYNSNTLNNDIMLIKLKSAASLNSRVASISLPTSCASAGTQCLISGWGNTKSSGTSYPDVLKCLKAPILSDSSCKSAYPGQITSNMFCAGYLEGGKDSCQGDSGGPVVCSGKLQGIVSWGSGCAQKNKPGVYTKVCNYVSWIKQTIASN
Kind of series: Trypsin inhibition assay (kinetic, substrate Phe-Pro-Arg-AMC). The series is classed as biochemical. On the procedure:
The kinetic enzyme assay was performed as described in the previous study. Substrate Phe-Pro-Arg-AMC was employed for investigating the hydrolysis of bovine trypsin. Trypsin working solution (10 µL trypsin stock solution (0.1 µM) + 9.99 mL HCl (1 mM)) and trypsin substrate working solution (50 µL substrate stock solution (Phe-Pro-Arg-AMC) (10 mM) + 9.95 mL PBS) were prepared prior to use. Trypsin inhibition assay contained three groups, namely positive control (20 µL PBS, 180 µL substrate working solution, 10 µL trypsin working solution), blank control (20 µL PBS + 10 µL HCl (1 mM) + 180 µL substrate working solution) and peptide group (20 µL peptide solution with the concentration ranging from 10 to 1000 µM, 180 µL substrate working solution, 10 µL trypsin working solution). The fluorescent strength released from hydrolysis of the substrate was monitored at 37 °C at the wavelength of 460 nm (excitation at 360 nm) in a POLARstar Omega Microplate Reader (B.M.G. Labtech, Offenburg, German). Each concentration of the sample was carried out in triplicate and repeated at least three times.
Peptide concentration ( μM)
Figure S3. The progress curve of inhibition rate in the presence of different concentrations of pep-tides (a) Kunitzin-AH; (b) AH-1363; (c) AH-unoxidized; (d) AH-1447; (e) AH-798; (f) AH-880-I; (g) […]
The Y-axis represented the rate of the fluorescence decay, while the X-axis represented peptide concentrations in µM. The Ki values were calculated by Morrison formula in Prism 6, in […]
Error bars represent standard error of mean
(SEM) of three replicates. […]

For a further series, the system named is horse erythrocytes. The series can be described thus: Hemolytic activity assay. Conditions: for Hemolysis: 2% horse erythrocytes suspension, 37 °C, two hours. The series is classed as cell-based. On the procedure: Hemolysis assay was conducted through the incubation of peptides and 2% horse erythrocytes suspension (T.C.S. Biosciences Ltd. Buckingham, UK) at 37 °C for two hours as detailed in the previous study. Afterwards, the positive control (considered as 100% hemolysis of cells) was conducted with 1% Triton X-100 (Sigma, Dorset, UK), while the negative control (0%) was treated with phosphate-buffered saline (PBS). The absorbance values were subsequently measured with a Synergy H.T. plate reader (BioTech, Minneapolis, MN, USA) and calculated by using Gen 5 software at a wavelength of 550 nm.

The mark [1] stands for this setting: Morrison formula, three independent experiments, 37 °C, read-out: Ki Value.

Like-named read-outs stand apart in the source and are kept apart here. Where a SMILES comes first, the peptide text is derived from it. Bridges are numbered along the chain shown (N, C = ends).

Take `C[C@@H]1NC(=O)[C@H](C)NC(=O)[C@H](CCCCN)NC(=O)[C@@H](NC(=O)[C@@H](N)CCCNC(=N)N)CSSC[C@@H](C(=O)O)NC(=O)[C@H](Cc2ccccc2)NC1=O` [AH-798, RCKAAFC] (H-RCKAAFC-OH; disulfide 2-7): the Ki – broadly, a dissociation constant, usually derived from enzyme kinetics or from competition with a known ligand – on bovine trypsin (setting [1]) was 1.76 ± 0.13 µM. Also, the Hemolysis in the series with horse erythrocytes is more than 512 µM.

On to `CC[C@H](C)[C@@H]1NC(=O)[C@H](CCCCN)NC(=O)[C@@H](NC(=O)[C@@H](N)CCCNC(=N)N)CSSC[C@@H](C(=O)O)NC(=O)[C@H](Cc2ccccc2)NC(=O)[C@H]([C@@H](C)CC)NC1=O` [AH-880-I, RCKIIFC] (H-RCKIIFC-OH; disulfide 2-7), for which the Ki on bovine trypsin (setting [1]) came to 16.1 ± 1.2 µM. Besides, the Hemolysis in the series with horse erythrocytes is given as more than 512 µM.

As to `N=C(N)NCCC[C@H](N)C(=O)N[C@H]1CSSC[C@@H](C(=O)O)NC(=O)[C@H](Cc2ccccc2)NC(=O)[C@H](CC(N)=O)NC(=O)[C@H](CC(N)=O)NC(=O)[C@H](CCCCN)NC1=O` [AH-884, RCKNNFC] (H-RCKNNFC-OH; disulfide 2-7), the Ki on bovine trypsin (setting [1]) turned out to be 133 ± 4.1 µM. The Hemolysis in the series with horse erythrocytes was more than 512 µM.

At bovine trypsin, `CC(C)[C@H](NC(=O)[C@H](C)N)C(=O)N[C@@H](CCCNC(=N)N)C(=O)N1CCC[C@H]1C(=O)N1CCC[C@H]1C(=O)N[C@@H](Cc1ccccc1)C(=O)N[C@@H](CCCNC(=N)N)C(=O)N[C@@H](CS)C(=O)N[C@@H](CCCCN)C(=O)N[C@@H](C)C(=O)N[C@@H](C)C(=O)N[C@@H](Cc1ccccc1)C(=O)O` [AH-1363, AVRPPFRCKAAF] (H-AVRPPFRCKAAF-OH; N-terminus and C-terminus assumed) registered a Ki of 96.9 ± 1.2 µM. The Hemolysis with horse erythrocytes is more than 512 µM.

On to `CC(C)[C@H](NC(=O)[C@H](C)N)C(=O)N[C@@H](CCCNC(=N)N)C(=O)N1CCC[C@H]1C(=O)N1CCC[C@H]1C(=O)N[C@@H](Cc1ccccc1)C(=O)N[C@@H](CCCNC(=N)N)C(=O)N[C@H]1CSSC[C@@H](C(=O)O)NC(=O)[C@H](CCCCN)NC(=O)[C@H](C)NC(=O)[C@H](C)NC(=O)[C@H](CCCCN)NC1=O` [AH-1447, AVRPPFRCKAAKC] (H-AVRPPFRCKAAKC-OH; disulfide 8-13), for which the Ki on bovine trypsin was 349.2 ± 0.93 µM. For the same compound, the Hemolysis with horse erythrocytes is recorded as more than 512 µM.

`CC(C)[C@H](NC(=O)[C@H](C)N)C(=O)N[C@@H](CCCNC(=N)N)C(=O)N1CCC[C@H]1C(=O)N1CCC[C@H]1C(=O)N[C@@H](Cc1ccccc1)C(=O)N[C@@H](CCCNC(=N)N)C(=O)N[C@@H](CS)C(=O)N[C@@H](CCCCN)C(=O)N[C@@H](C)C(=O)N[C@@H](C)C(=O)N[C@@H](Cc1ccccc1)C(=O)N[C@@H](CS)C(=O)O` [AH-unoxidized, AVRPPFRCKAAFC] (H-AVRPPFRCKAAFC-OH): on bovine trypsin, the affinity, expressed as Ki, was 59.9 ± 2.82 µM. Further, the Hemolysis in the series with horse erythrocytes was more than 512 µM.

`CC(C)[C@H](NC(=O)[C@H](C)N)C(=O)N[C@@H](CCCNC(=N)N)C(=O)N1CCC[C@H]1C(=O)N1CCC[C@H]1C(=O)N[C@@H](Cc1ccccc1)C(=O)N[C@@H](CCCNC(=N)N)C(=O)N[C@H]1CSSC[C@@H](C(=O)O)NC(=O)[C@H](Cc2ccccc2)NC(=O)[C@H](C)NC(=O)[C@H](C)NC(=O)[C@H](CCCCN)NC1=O` [Kunitzin-AH, AVRPPFRCKAAFC] (H-AVRPPFRCKAAFC-OH; disulfide 8-13) returned a Ki at bovine trypsin of 1.18 ± 0.08 µM. The Hemolysis in the series on horse erythrocytes is recorded as more than 512 µM. In addition, in the series with horse erythrocytes (normal horse erythrocytes), the “hemolytic activity (in words)” value was “without inducing damage to healthy horse erythrocytes”.

The values are drawn from paper PMC8309051, “Structure–Activity Relationship and Molecular Docking of a Kunitz-Like Trypsin Inhibitor, Kunitzin-AH, from the Skin Secretion of Amolops hainanensis” (Pharmaceutics, 2021).
